In a melting point compilation (Tetko et al.) one finds melting point data, which are given here for 108 compounds.

Usually melting point stands for the temperature, or range, at which the solid turns liquid. In turn, `CCCCC(C(=O)O)C(=O)N(Nc1ccccc1)c1ccccc1` (stereo not drawn) displayed a melting point of 116 °C.

The compound `COC(=O)c1c(C=O)ccc(OC)c1OC` returned a melting point of 83 °C.

As to `OCc1c2ccccc2cc2ccccc12`, the melting point is 163 °C.

Regarding `CC(C)(C)OC(=O)N1CCC[C@@H]1C(=O)O`, the melting point was in the range of 133 to 135 °C.

`Nc1cc(CO)ccn1` registered a melting point of 83 °C.

Turning to `Oc1cccc(N2CCOCC2)c1`, the melting point was in the range of 136 to 138 °C.

`CCOC(=O)/C(C(N)=S)=C1/NN=C(c2ccccc2O)O1` showed a melting point of 128 °C.

For the compound `CC(N)CC(=O)O` (stereo not drawn), the melting point amounted to 193 °C.

On to `Brc1cccc(Oc2ccc(Br)c(Br)c2)c1`, for which the melting point was under 20 °C.

Take `COc1ccc(C(=O)c2ccc(Cl)cc2Cl)cc1OC`: the melting point was 128 °C.

The compound `O=C(N(c1ccccc1)c1ccccc1)C(F)(F)C(F)(F)C(F)(F)C(F)(F)C(F)(F)C(F)(F)C(F)(F)C(F)(F)F` returned a melting point of 92 °C.

`COc1ccc(N/N=C(/C(=O)c2cccc3ccccc23)S(=O)(=O)c2ccccc2)cc1` registered a melting point of 118 °C.

For the compound `C#C[C@@]1(OC)CC[C@H]2[C@@H]3CCc4cc(OC)ccc4[C@H]3CC[C@@]21C`, the melting point came out at 114 °C.

For the compound `CC(=O)c1c(-c2c(Cl)cccc2Cl)noc1C`, the melting point was 72 to 74 °C.

The compound `Cc1c(C)c(CBr)c(CBr)c(CBr)c1CBr` displayed a melting point of 205 °C.

As for `CC(C)n1c(C(F)(F)F)nc2cc(C(=O)Cl)ccc21`, the melting point came to 102 °C.

For the compound `O=C(O)c1cncc(C(=O)O)c1`, the melting point was found to be 324 °C.

For `CC(OC/C(=N\NC(N)=O)c1ccccc1)=C(C#N)c1ccccc1`, the melting point lay in the range of 156 to 158 °C.

`O=c1nc2ccccc2nc(C(F)(F)F)c1NNc1ccc(Cl)cc1` showed a melting point of 151 °C.

`Nc1ncccc1OCc1ccccc1`: the melting point is 94 to 98 °C.

For `O=C(Cl)c1csc(Cc2c(Cl)cccc2Cl)n1`, the melting point is 104 °C.

With `Clc1cccc2cc[nH]c12`, the melting point amounted to 58 °C.

With `O=C(c1ccc([N+](=O)[O-])cc1)c1noc(-c2ccc(Br)cc2)c1S(=O)(=O)c1ccccc1`, the melting point was determined as 178 °C.

The compound `CCCOc1c2cccc1Cc1cc(Br)cc(c1O)Cc1cccc(c1OCCC)Cc1cc(Br)cc(c1O)C2` displayed a melting point of 307 to 309 °C.

For the compound `O=C(C1=NOC2C(=O)N(c3cc(Cl)ccc3Cl)C(=O)C12)c1ccc([N+](=O)[O-])cc1` (stereo not drawn), the melting point stood at 216 °C.

Consider `O=C(O)C(O)c1ccccc1F` (stereo not drawn), for which the melting point was 115 °C.

With `COC(=O)C1=C(N)CCN(Cc2ccccc2)C1`, the melting point lay in the range of 87 to 89 °C.

Regarding `[O-][N+](=Nc1cccc(O)c1)c1cccc(O)c1`, the melting point was 183 °C.

`C1=CC2c3ccccc3C1C21CC1` yielded a melting point of 43 °C.

The compound `COC(=O)c1cc(Br)ccc1N` displayed a melting point of 72 °C.

Compound `Oc1ccc(C2CCCC2)cc1` showed a melting point of 65 °C.

`Cc1ccc(S(=O)(=O)Oc2c(C(=O)c3ccc(Cl)cc3Cl)c(C)nn2C)cc1` yielded a melting point of 118 °C.

In turn, `O=C(Cl)c1ccc(-c2nccs2)cc1` gave a melting point of 122 to 123 °C.

Consider `COc1cc(F)c(C#N)cc1F`, for which the melting point amounted to 91 °C.

`O=S(=O)(Cl)c1csc(C(F)(F)F)c1-c1ccccc1` gave a melting point of 86 to 87 °C.

In turn, `C1CCC(C2CCCCC2)CC1` had a melting point of 3 to 4 °C.

For the compound `CC(C)CC(=O)NC(C(=O)NC(C(=O)NC(CC(C)C)C(O)CC(=O)NC(C)C(=O)NC(CC(C)C)C(O)CC(=O)O)C(C)C)C(C)C` (stereo not drawn), the melting point came to 233 °C.

Regarding `CCCC(O)CC(C)C` (stereo not drawn), the melting point is -81 °C.

Compound `COc1cc2c(c3oc(=O)c4c(c13)CCC4=O)C1CCOC1O2` (stereo not drawn) yielded a melting point of 288 °C.

Regarding `C=CCc1c(O)cccc1C=O`, the melting point is 104 to 106 °C.

On to `O=C1NC(=O)C(=Cc2ccccc2)N1`, for which the melting point worked out at 222 °C.

`CC1=CCCC1C` (stereo not drawn) yielded a melting point of -118 °C.

For `FCc1ccccc1`, the melting point was -35 °C.

`CC(C)(C)OC(=O)N1Cc2ccccc2C[C@H]1C(=O)O` came in with a melting point of 125 to 126 °C.

Take `c1cc2c(nn1)CCc1nonc1-2`: the melting point lay in the range of 108 to 110 °C.

Compound `CCCCCC(C=O)=Cc1ccccc1` showed a melting point of 80 °C.

The compound `CCCCCCCCCCCC(C)=O` had a melting point of 30.5 °C.

Compound `NC(=NO)c1ccc(Oc2ccc(F)cc2F)c([N+](=O)[O-])c1` came in with a melting point of 164 to 167 °C.

`CNC(=O)c1ccccc1N` gave a melting point of 75 to 76 °C.

In turn, `C[C@]12CC[C@H]3[C@@H](CC=C4C[C@@H](O)CC[C@@]43C)[C@@H]1CC[C@@H]2O` yielded a melting point of 178 to 182 °C.

For the compound `CCOc1ccc(C(=O)OC)cc1`, the melting point amounted to 36 °C.

`CCOC(=O)c1csc(N2CCOCC2)n1` had a melting point of 88.5 to 90 °C.

With `Ic1ccc(-n2cccc2)cc1`, the melting point came to 131 °C.

For `Ic1nccn1C(c1ccccc1)(c1ccccc1)c1ccccc1`, the melting point came to 171 °C.

`Nc1[nH]c(=O)[nH]c(=O)c1N=O` returned a melting point of 280 °C.

As for `CCCCCC(O)C=CC1C(O)CC(O)C1CC=CCCCC(=O)O` (stereo not drawn), the melting point came out at 30 °C.

Compound `Nc1ccc2[nH]ccc2c1` gave a melting point of 132 °C.

`O=Cc1ccc(SC2CCCCC2)c([N+](=O)[O-])c1` yielded a melting point of 94 to 96 °C.

`O=C(O)c1ccc(Cl)cc1[N+](=O)[O-]` came in with a melting point of 144 °C.

As for `O=Cc1ccc(N2CCOCC2)cc1`, the melting point is 66 °C.

As for `CC(C)c1ccccc1C(C)C`, the melting point is -57 °C.

`CC(C)C(O)(c1ccc(OC(F)(F)F)cc1)c1cncnc1` (stereo not drawn): the melting point was 95.3 °C.

`COc1cc2c(cc1C)C(C#N)C2` (stereo not drawn) yielded a melting point of 67 °C.

Compound `Cc1cc(O)cc(C)c1C` showed a melting point of 106 °C.

On to `C=C1C(=O)C23C(OC)CC4C5(C)CCCC4(COC5)C2C(O)CC1C3O` (stereo not drawn), for which the melting point is 288 °C.

For the compound `O=Cc1ccc(N2CCCC2=O)cc1`, the melting point lay within 121 to 122 °C.

The compound `O=Cc1ccc(N2CCCC2)cc1` showed a melting point of 85 °C.

As for `O=c1c2ccccc2[nH]c(=S)n1-c1ccc(F)cc1`, the melting point was 337 to 339 °C.

`Oc1cccc2c(O)nccc12`: the melting point is 270 to 275 °C.

Compound `CCC(C(=O)O)c1ccccc1` (stereo not drawn) showed a melting point of 47.5 °C.

In turn, `C=C(C)CO` yielded a melting point of -50 °C.

As to `CCOC(=O)C(C)C(=O)CC(O)CC1CC=C(C)C1(C)C` (stereo not drawn), the melting point worked out at 132 °C.

On to `O=C(Nc1ccccc1)C(C(F)(F)F)C(F)(F)F`, for which the melting point lay within 165 to 167 °C.

In turn, `COc1ccc(C(=O)C2=NOC3C(=O)N(c4ccc(Br)cc4)C(=O)C23)cc1` (stereo not drawn) displayed a melting point of 124 °C.

`c1ccc(P(CCCCCCP(c2ccccc2)c2ccccc2)c2ccccc2)cc1`: the melting point came out at 127 °C.

The compound `Oc1ccc2c(c1)Cc1ccccc1-2` gave a melting point of 168 °C.

The compound `CCOC(C/N=C/c1cccc(/C=N/CC(OCC)OCC)c1)OCC` registered a melting point of 61 °C.

Regarding `BrCCOc1ccc(Br)cc1`, the melting point fell in the range of 56 to 57 °C.

`O=C(O)c1csc(-c2cccnc2)n1` displayed a melting point of 283 to 284 °C.

Consider `O=c1[nH]c2ccccc2nc(C(F)(F)F)c1=NNc1cc(-c2ccccc2)n[nH]1`, for which the melting point stood at 159 °C.

`COc1ccc(C(O)(c2ccccc2OC)c2ccc(OC)cc2OC)c(OC)c1` displayed a melting point of 137 °C.

As for `c1ccc(SCc2ccc(CN3CCOCC3)cc2)cc1`, the melting point was 219 °C.

Regarding `Sc1nnc(-c2ccco2)n1-c1ccc2c(c1)OCCO2`, the melting point fell in the range of 237 to 240 °C.

For the compound `CC(=NOCc1cccc(C(=O)O)c1)c1ccc(Cl)c(Cl)c1`, the melting point was 175 to 178 °C.

`NS(=O)(=O)c1ccc(F)cc1C(F)(F)F` returned a melting point of 167 °C.

`Cc1cc(C)n(C(N)=O)n1`: the melting point lay within 113 to 115 °C.

Take `O=C(O)C(=Cc1ccc(Cl)cc1)C(=Cc1ccc(Cl)cc1)C(=O)O`: the melting point worked out at 232 °C.

The compound `N#CCc1ccc(OCc2ccc(Cl)c(Cl)c2)cc1` yielded a melting point of 76 to 77 °C.

Consider `c1cnc(N2CCN(Cc3ccc4c(c3)OCO4)CC2)nc1`, for which the melting point amounted to 98 °C.

The compound `CCCCCCOc1ccc(N)cc1` displayed a melting point of 44 °C.

As for `Ic1c(-c2ccccc2)cccc1-c1ccccc1`, the melting point stood at 115 °C.

`CS(=O)(=O)Nc1ccccc1`: the melting point lay within 93 to 97 °C.

As to `CNC(=O)N(C)C`, the melting point was 75.5 °C.

With `Cn1c(=O)c(C2=NNC(=O)C2=Cc2cccc(Cl)c2)c(O)c2ccccc21`, the melting point is 265 °C.

`ClC1CCC(Cl)CC1` (stereo not drawn) registered a melting point of 18 °C.

Compound `CC(C)n1cc(C#N)c(=O)n(Cc2ccccc2)c1=O` showed a melting point of 151 to 154 °C.

For the compound `C=CC(=O)OCC(CC)CC`, the melting point is -70 °C.

Regarding `CCN(CC)c1ccc2nc3c4ccccc4c(=O)cc-3oc2c1`, the melting point was 203 to 205 °C.

Regarding `O=C(C=Cc1ccc(-c2ccc(Br)cc2)o1)c1ccco1`, the melting point fell in the range of 164 to 165 °C.

`NCCOP(=O)(O)O` registered a melting point of 242 °C.

Compound `O=C(N[C@@H](Cc1ccc(Br)cc1)C(=O)O)OCC1c2ccccc2-c2ccccc21` displayed a melting point of 152 °C.

As for `O=C1CCCCCCCN1`, the melting point was 78 °C.

Compound `Nc1ccc(Cl)cc1N` came in with a melting point of 76 °C.

As to `O=S(=O)(Cl)c1ccc(-c2cnco2)s1`, the melting point is 80 to 82 °C.

As to `CCCCC(/C=C1\C(=O)C2(C)CCC1C2(C)C)(/C=C1\C(=O)C2(C)CCC1C2(C)C)C(=O)OCC` (stereo not drawn), the melting point came out at 175 °C.

Compound `O=C1OC=CC(c2ccccc2)Cc2ccccc21` (stereo not drawn) came in with a melting point of 120 °C.

As to `COc1cc(C(F)(F)F)nc2ccc(C)c([N+](=O)[O-])c12`, the melting point lay within 181 to 183 °C.

As for `O=C(CC(=O)C(F)(F)F)c1ccc2ccccc2c1`, the melting point was 74 °C.
